# Laboratory results from PubChem BioAssay (NCI).
# Where “and” joins values, the source holds several entries; their conditions need not be identical. Equal entries are not always repeated.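 A five-concentration, 48-hour dose response in 96-well plates underlies each endpoint, interpolated linearly between surrounding concentrations. At the TGI there is no net growth.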
# Key:
# Assay in all cases: DTP human tumour cell line panel, 48 h
# CCRF-CEM leukemia = system: CCRF-CEM leukemia
# DU-145 prostate = system: DU-145 prostate
# BT-549 breast = system: BT-549 breast
# KM12 colon = system: KM12 colon
# SF-539 CNS = system: SF-539 CNS
# MOLT-4 leukemia = system: MOLT-4 leukemia
# SR leukemia = system: SR leukemia
# OVCAR-3 ovarian = system: OVCAR-3 ovarian
# NCI-H460 lung = system: NCI-H460 lung
# NCI-H23 lung = system: NCI-H23 lung
# RXF 393 renal = system: RXF 393 renal
# HS 578T breast = system: HS 578T breast
# NCI-H522 lung = system: NCI-H522 lung
# A498 renal = system: A498 renal
# SN12C renal = system: SN12C renal
# UACC-257 melanoma = system: UACC-257 melanoma
# PC-3 prostate = system: PC-3 prostate
# 786-0 renal = system: 786-0 renal
# T-47D breast = system: T-47D breast
# HT29 colon = system: HT29 colon
# HL-60(TB) leukemia = system: HL-60(TB) leukemia
# UO-31 renal = system: UO-31 renal
# IGROV1 ovarian = system: IGROV1 ovarian
# NCI/ADR-RES ovarian = system: NCI/ADR-RES ovarian
# COLO 205 colon = system: COLO 205 colon
# M14 melanoma = system: M14 melanoma
# NCI-H226 lung = system: NCI-H226 lung
# MDA-MB-435 = system: MDA-MB-435
# OVCAR-5 ovarian = system: OVCAR-5 ovarian
# OVCAR-8 ovarian = system: OVCAR-8 ovarian
# MDA-N = system: MDA-N
# OVCAR-4 ovarian = system: OVCAR-4 ovarian
# SF-268 CNS = system: SF-268 CNS
# HOP-62 NSCLC = system: HOP-62 NSCLC
# TK-10 renal = system: TK-10 renal
# SK-MEL-5 melanoma = system: SK-MEL-5 melanoma
# SW-620 colon = system: SW-620 colon
# MCF7 breast = system: MCF7 breast
# UACC-62 melanoma = system: UACC-62 melanoma
# HOP-92 NSCLC = system: HOP-92 NSCLC
# SK-OV-3 ovarian = system: SK-OV-3 ovarian
# EKVX NSCLC = system: EKVX NSCLC
# LOX IMVI melanoma = system: LOX IMVI melanoma
# HCT-15 colon = system: HCT-15 colon
# A549 NSCLC = system: A549 NSCLC
# MALME-3M melanoma = system: MALME-3M melanoma
# U251 CNS = system: U251 CNS
# RPMI-8226 leukemia = system: RPMI-8226 leukemia
# CAKI-1 renal = system: CAKI-1 renal
# ACHN renal = system: ACHN renal
# SNB-75 CNS = system: SNB-75 CNS
# SF-295 CNS = system: SF-295 CNS
# SNB-19 CNS = system: SNB-19 CNS
# HCC-2998 colon = system: HCC-2998 colon
# MDA-MB-231 breast = system: MDA-MB-231 breast
# SK-MEL-28 melanoma = system: SK-MEL-28 melanoma
# HCT-116 colon = system: HCT-116 colon
# K-562 leukemia = system: K-562 leukemia
# SK-MEL-2 melanoma = system: SK-MEL-2 melanoma
# M19-MEL melanoma = system: M19-MEL melanoma
# DMS 273 small cell lung = system: DMS 273 small cell lung
# DLD-1 colon = system: DLD-1 colon
# KM20L2 colon = system: KM20L2 colon
# HOP-18 NSCLC = system: HOP-18 NSCLC
# DMS 114 small cell lung = system: DMS 114 small cell lung
# LXFL 529 NSCLC = system: LXFL 529 NSCLC
compound,measurement,setting,value
COc1cc(C2S/C(=C/c3ccccc3)C(=O)N2c2cc(Cl)c(Cl)cc2Cl)cc(OC)c1OC (centres undefined),TGI,CCRF-CEM leukemia,> 88.9 µM
same,TGI,DU-145 prostate,> 100 µM
same,TGI,BT-549 breast,> 74.4 µM
same,TGI,KM12 colon,> 78.3 µM
same,TGI,SF-539 CNS,> 100 µM
same,TGI,MOLT-4 leukemia,> 72.4 µM
same,TGI,SR leukemia,> 69.4 µM
same,TGI,OVCAR-3 ovarian,> 100 µM
same,TGI,NCI-H460 lung,> 100 µM
same,TGI,NCI-H23 lung,> 100 µM
same,TGI,RXF 393 renal,> 100 µM
same,TGI,HS 578T breast,> 57 µM
same,TGI,NCI-H522 lung,> 66.5 µM
same,TGI,A498 renal,> 78 µM
same,TGI,SN12C renal,> 100 µM
same,TGI,UACC-257 melanoma,> 100 µM
same,TGI,PC-3 prostate,> 100 µM
same,TGI,786-0 renal,> 100 µM
same,TGI,T-47D breast,> 100 µM
same,TGI,HT29 colon,> 100 µM
same,TGI,HL-60(TB) leukemia,> 77.2 µM
same,TGI,UO-31 renal,> 100 µM
same,TGI,IGROV1 ovarian,> 100 µM
same,TGI,NCI/ADR-RES ovarian,> 100 µM
same,TGI,COLO 205 colon,> 100 µM
same,TGI,M14 melanoma,> 100 µM
same,TGI,NCI-H226 lung,> 100 µM
same,TGI,MDA-MB-435,> 100 µM
same,TGI,OVCAR-5 ovarian,> 100 µM
same,TGI,OVCAR-8 ovarian,> 100 µM
same,TGI,MDA-N,> 100 µM
same,TGI,OVCAR-4 ovarian,> 100 µM
same,TGI,SF-268 CNS,> 100 µM
same,TGI,HOP-62 NSCLC,> 100 µM
same,TGI,TK-10 renal,> 100 µM
same,TGI,SK-MEL-5 melanoma,> 100 µM
same,TGI,SW-620 colon,> 100 µM
same,TGI,MCF7 breast,> 100 µM
same,TGI,UACC-62 melanoma,> 100 µM
same,TGI,HOP-92 NSCLC,> 74.6 µM
same,TGI,SK-OV-3 ovarian,> 100 µM
same,TGI,EKVX NSCLC,> 88.6 µM
same,TGI,LOX IMVI melanoma,> 79.3 µM
same,TGI,HCT-15 colon,> 100 µM
same,TGI,A549 NSCLC,> 100 µM
same,TGI,MALME-3M melanoma,> 84.4 µM
same,TGI,U251 CNS,> 100 µM
same,TGI,RPMI-8226 leukemia,> 62.4 µM
same,TGI,CAKI-1 renal,> 87.1 µM
same,TGI,ACHN renal,> 100 µM
same,TGI,SNB-75 CNS,19.1 µM
same,TGI,SF-295 CNS,> 100 µM
same,TGI,SNB-19 CNS,> 100 µM
same,TGI,HCC-2998 colon,> 100 µM
same,TGI,MDA-MB-231 breast,> 100 µM
same,TGI,SK-MEL-28 melanoma,> 100 µM
same,TGI,HCT-116 colon,> 75 µM
same,TGI,K-562 leukemia,> 78.3 µM
same,TGI,SK-MEL-2 melanoma,> 100 µM
NC(=O)CCC(NC(=O)Cc1ccccc1)C(=O)O (centres undefined) (tested in a mixture with another compound),TGI,CCRF-CEM leukemia,> 8130 µM
same,TGI,KM12 colon,> 8130 µM
same,TGI,SF-539 CNS,> 8130 µM
same,TGI,MOLT-4 leukemia,> 8130 µM
same,TGI,SR leukemia,> 8130 µM
same,TGI,OVCAR-3 ovarian,> 8130 µM
same,TGI,NCI-H23 lung,> 8130 µM
same,TGI,RXF 393 renal,2030 µM and > 8130 µM
same,TGI,NCI-H522 lung,> 8130 µM
same,TGI,A498 renal,> 8130 µM
same,TGI,SN12C renal,> 8130 µM
same,TGI,786-0 renal,> 8130 µM
same,TGI,HT29 colon,> 8130 µM
same,TGI,HL-60(TB) leukemia,> 8130 µM
same,TGI,UO-31 renal,2100 µM and > 8130 µM
same,TGI,IGROV1 ovarian,> 8130 µM
same,TGI,M19-MEL melanoma,> 8130 µM
same,TGI,COLO 205 colon,> 8130 µM
same,TGI,M14 melanoma,> 8130 µM
same,TGI,OVCAR-5 ovarian,> 8130 µM
same,TGI,OVCAR-8 ovarian,> 8130 µM
same,TGI,OVCAR-4 ovarian,> 8130 µM
same,TGI,SF-268 CNS,> 8130 µM
same,TGI,HOP-62 NSCLC,> 8130 µM
same,TGI,TK-10 renal,> 8130 µM
same,TGI,SK-MEL-5 melanoma,> 8130 µM
same,TGI,DMS 273 small cell lung,> 2470 µM
same,TGI,SW-620 colon,> 8130 µM
same,TGI,UACC-62 melanoma,> 8130 µM
same,TGI,DLD-1 colon,> 8130 µM
same,TGI,HOP-92 NSCLC,> 8130 µM
same,TGI,SK-OV-3 ovarian,> 8130 µM
same,TGI,EKVX NSCLC,> 8130 µM
same,TGI,HCT-15 colon,> 2470 µM
same,TGI,A549 NSCLC,> 8130 µM
same,TGI,MALME-3M melanoma,> 8130 µM
same,TGI,U251 CNS,> 8130 µM
same,TGI,RPMI-8226 leukemia,> 8130 µM
same,TGI,KM20L2 colon,> 8130 µM
same,TGI,CAKI-1 renal,> 8130 µM
same,TGI,SNB-75 CNS,1680 µM and > 8130 µM
same,TGI,HOP-18 NSCLC,> 8130 µM
same,TGI,DMS 114 small cell lung,> 8130 µM
same,TGI,SF-295 CNS,> 8130 µM
same,TGI,SNB-19 CNS,> 8130 µM
same,TGI,LXFL 529 NSCLC,> 8130 µM
same,TGI,HCC-2998 colon,> 8130 µM
same,TGI,SK-MEL-28 melanoma,> 8130 µM
same,TGI,HCT-116 colon,> 8130 µM
same,TGI,K-562 leukemia,> 8130 µM
same,TGI,SK-MEL-2 melanoma,> 8130 µM
OCC1OC2OC3C(CO)OC(OC4C(CO)OC(OC5C(CO)OC(OC6C(CO)OC(OC7C(CO)OC(OC1C(O)C2O)C(O)C7O)C(O)C6O)C(O)C5O)C(O)C4O)C(O)C3O (centres undefined) (tested in a mixture with another compound),TGI,CCRF-CEM leukemia,> 100 µM
same,TGI,DU-145 prostate,> 100 µM
same,TGI,BT-549 breast,> 100 µM
same,TGI,KM12 colon,> 100 µM
same,TGI,SF-539 CNS,> 78.8 µM
same,TGI,MOLT-4 leukemia,> 100 µM
same,TGI,SR leukemia,34.3 µM
same,TGI,OVCAR-3 ovarian,> 100 µM
same,TGI,NCI-H460 lung,> 100 µM
same,TGI,NCI-H23 lung,> 100 µM
same,TGI,RXF 393 renal,> 100 µM
same,TGI,HS 578T breast,> 100 µM
same,TGI,NCI-H522 lung,> 100 µM
same,TGI,A498 renal,> 100 µM
same,TGI,SN12C renal,> 100 µM
same,TGI,UACC-257 melanoma,> 100 µM
same,TGI,PC-3 prostate,> 100 µM
same,TGI,786-0 renal,> 100 µM
same,TGI,T-47D breast,> 100 µM
same,TGI,HT29 colon,> 100 µM
same,TGI,HL-60(TB) leukemia,55 µM
same,TGI,UO-31 renal,> 100 µM
same,TGI,IGROV1 ovarian,> 100 µM
same,TGI,NCI/ADR-RES ovarian,> 96.1 µM
same,TGI,COLO 205 colon,> 100 µM
same,TGI,M14 melanoma,> 100 µM
same,TGI,NCI-H226 lung,> 100 µM
same,TGI,MDA-MB-435,40.7 µM
same,TGI,OVCAR-5 ovarian,> 100 µM
same,TGI,OVCAR-8 ovarian,> 100 µM
same,TGI,MDA-N,39.9 µM
same,TGI,OVCAR-4 ovarian,> 100 µM
same,TGI,SF-268 CNS,> 100 µM
same,TGI,HOP-62 NSCLC,> 100 µM
same,TGI,TK-10 renal,> 100 µM
same,TGI,SK-MEL-5 melanoma,97.8 µM
same,TGI,SW-620 colon,> 100 µM
same,TGI,MCF7 breast,> 100 µM
same,TGI,UACC-62 melanoma,> 100 µM
same,TGI,HOP-92 NSCLC,> 100 µM
same,TGI,SK-OV-3 ovarian,> 100 µM
same,TGI,EKVX NSCLC,> 100 µM
same,TGI,LOX IMVI melanoma,> 100 µM
same,TGI,HCT-15 colon,> 100 µM
same,TGI,A549 NSCLC,> 100 µM
same,TGI,MALME-3M melanoma,> 100 µM
same,TGI,U251 CNS,> 100 µM
same,TGI,RPMI-8226 leukemia,> 100 µM
same,TGI,CAKI-1 renal,> 100 µM
same,TGI,ACHN renal,> 100 µM
same,TGI,SNB-75 CNS,> 100 µM
same,TGI,SF-295 CNS,> 100 µM
same,TGI,SNB-19 CNS,> 100 µM
same,TGI,HCC-2998 colon,> 100 µM
same,TGI,MDA-MB-231 breast,> 100 µM
same,TGI,SK-MEL-28 melanoma,> 100 µM
same,TGI,HCT-116 colon,> 100 µM
same,TGI,K-562 leukemia,> 100 µM
same,TGI,SK-MEL-2 melanoma,> 100 µM
